Reference: patent US8067424B2, “Selective inhibitors for cyclin-dependent kinases” (Emory University, priority 2007, dated 2011)
Read-outs that look alike come from different tables or passages of the source.

Tests used:
Type in all cases: biochemical
[1] = biological target: ROCK 2 (Homo sapiens, UniProt O75116); experiment: Kinase screen: ROCK-II (ROKa) assay
Description: (§1) Generally, the same procedure was used for all assays. Since the total assay volume was 25.5 microliters, 0.5 microliters of inhibitors at 51× assay concentration were added to the plates before any other addition.
(§2) The basic procedure was to add 0.5 microliters inhibitor/control in DMSO to plate. Fifteen microliters of enzyme/substrate/buffer mix were added and incubated for 5 min. Ten microliters MgATP at the relevant concentration were added and incubated for 30 min. The assay was stopped by adding 5 microliters of 3% orthophosphoric acid. The assay was transferred to a p81 filter plate and read in a scintillation counter of 30 sec/well. Note that this assay procedure was not followed for MKK1, which instead involved a two-step assay, and PKC alpha, which required the addition of lipid vesicles.
ROCK-II (ROKa) assay: ROCK-II (ROKa) (5-20 mU diluted in 50 mM Tris pH 7.5, 0.1 mM EGTA, 0.1% b-mercaptoethanol, 1 mg/ml BSA) was assayed against Long S6 substrate peptide ([…]) (SEQ ID NO: 10) in a final volume of 25.5 μl containing 50 mM Tris pH 7.5, 0.1 mM EGTA, 30 μM Long S6 substrate peptide, 10 mM magnesium acetate and 0.02 mM [33P-g-ATP] (50-1000 cpm/pmole) and incubated for 30 min at room temperature. Assays were stopped by addition of 5 μl of 0.5 M (3%) orthophosphoric acid and then harvested onto P81 Unifilter plates with a wash buffer of 50 mM orthophosphoric acid.

[2] = biological target: T1, IKKβ (Homo sapiens, UniProt O14920); experiment: Kinase screen: IKKb assay
T1 sequence (O14920 1-756): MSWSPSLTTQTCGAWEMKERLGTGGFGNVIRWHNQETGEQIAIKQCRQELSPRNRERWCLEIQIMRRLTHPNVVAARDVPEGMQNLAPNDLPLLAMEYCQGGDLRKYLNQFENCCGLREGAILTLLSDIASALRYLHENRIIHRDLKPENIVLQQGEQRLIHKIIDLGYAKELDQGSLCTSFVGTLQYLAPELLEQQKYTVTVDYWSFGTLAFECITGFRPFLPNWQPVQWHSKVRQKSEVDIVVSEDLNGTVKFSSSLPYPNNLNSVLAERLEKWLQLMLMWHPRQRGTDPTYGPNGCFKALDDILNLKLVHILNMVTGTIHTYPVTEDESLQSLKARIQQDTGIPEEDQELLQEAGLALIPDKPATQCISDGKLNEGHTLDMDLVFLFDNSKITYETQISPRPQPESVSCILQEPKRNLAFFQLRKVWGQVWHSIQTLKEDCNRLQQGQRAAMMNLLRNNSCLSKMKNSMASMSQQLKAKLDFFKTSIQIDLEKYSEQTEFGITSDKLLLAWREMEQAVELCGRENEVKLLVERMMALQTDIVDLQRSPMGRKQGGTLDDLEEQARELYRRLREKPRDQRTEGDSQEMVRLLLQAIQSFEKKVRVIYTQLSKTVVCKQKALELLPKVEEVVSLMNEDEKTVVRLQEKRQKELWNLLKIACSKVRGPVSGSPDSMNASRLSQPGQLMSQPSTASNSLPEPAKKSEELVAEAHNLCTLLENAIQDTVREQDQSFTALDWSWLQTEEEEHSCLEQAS
Description: as §1, §2
IKKb assay: 5-20 mU of IKKb (diluted in 50 mM Tris (pH 7.5), 0.1 mM EGTA, 1 mg/ml BSA, 0.1%, b-Mercaptoethanol) was assayed against substrate peptide ([…]) (SEQ ID NO: 20) in a final volume of 25.5 μl containing 50 mM Tris (pH 7.5), 0.1 mM EGTA, 0.1%, b-Mercaptoethanol, 300 μM substrate peptide, 10 mM magnesium acetate and 0.005 mM [33P-g-ATP] (500-1000 cpm/pmole) and incubated for 30 mins at room temperature. Assays were stopped by addition of 5 µl of 0.5M (3%) orthophosphoric acid. Assays were harvested onto P81 Unifilter plates using a wash buffer of 50 mM orthophosphoric acid.

[3] = biological target: MKK1 (Homo sapiens, UniProt Q02750); experiment: Kinase screen: MKK1 assay
Description: as §1, §2
After incubating at room temperature for 30 min, 5 μl from the first reaction was pipetted into 20 μl of the second reaction mix containing (final concentration) 25 mM Tris pH 7.5, 0.1 mM EGTA, 0.1 mM Na3VO4, 0.66 mg/ml myelin basic protein (MBP), 10 mM magnesium acetate and 0.05 mM [33P-g-ATP] (500-1000 cpm/pmole) and incubated for 30 min at room temperature. Assays were stopped by addition of 5 μl of 0.5 M (3%) orthophosphoric acid and then harvested onto P81 Unifilter plates with a wash buffer of 50 mM orthophosphoric acid.

[4] = biological target: ERK1 (Homo sapiens, UniProt P27361); experiment: Kinase screen: ERK1 assay
Description: as §1, §2
ERK1 assay: 5-20 mU of ERK1 (diluted in 50 mM Tris (pH 7.5), 0.1 mM EGTA, 1 mg/ml BSA, 0.1%, b-Mercaptoethanol) was assayed against MBP in a final volume of 25.5 μl containing 50 mM Tris (pH 7.5), 0.1 mM EGTA, 0.1%, b-Mercaptoethanol, 0.33 mg/ml MBP, 10 mM magnesium acetate and 0.005 mM [33P-g-ATP] (500-1000 cpm/pmole) and incubated for 30 mins at room temperature. Assays were stopped by addition of 5 μl of 0.5M (3%) orthophosphoric acid. Assays were harvested onto P81 Unifilter plates using a wash buffer of 50 mM orthophosphoric acid.

[5] = biological target: CHK2 (Homo sapiens, UniProt O96017); experiment: Kinase screen: CHK2 assay
Description: as §1, §2
CHK2 assay: CHK2 (5-20 mU diluted in 20 mM MOPS pH 7.5, 1 mM EDTA, 0.1% b-mercaptoethanol, 0.01% Brij-35, 5% glycerol, 1 mg/ml BSA) was assayed against CHKtide substrate peptide ([…]) (SEQ ID NO: 12) in a final volume of 25.5 μl containing 8 mM MOPS pH 7.0, 0.2 mM EDTA, 200 μM CHKtide, 10 mM magnesium acetate and 0.02 mM [33P-g-ATP] (50-1000 cpm/pmole) and incubated for 30 min at room temperature Assays were stopped by addition of 5 μl of 0.5 M (3%) orthophosphoric acid and then harvested onto P81 Unifilter plates with a wash buffer of 50 mM orthophosphoric acid.

[6] = 10 micromolar compound, read-out: mean activity remaining (as a percentage of the original activity), ROCK 2
[7] = 10 micromolar compound, read-out: mean activity remaining (as a percentage of the original activity), IKKb
[8] = 10 micromolar compound, read-out: mean activity remaining (as a percentage of the original activity), MKK1
[9] = 10 micromolar compound, read-out: mean activity remaining (as a percentage of the original activity), ERK1
[10] = 10 micromolar compound, read-out: mean activity remaining (as a percentage of the original activity), CHK 2

CHK2, sequence (O96017 whole entry, species assumed): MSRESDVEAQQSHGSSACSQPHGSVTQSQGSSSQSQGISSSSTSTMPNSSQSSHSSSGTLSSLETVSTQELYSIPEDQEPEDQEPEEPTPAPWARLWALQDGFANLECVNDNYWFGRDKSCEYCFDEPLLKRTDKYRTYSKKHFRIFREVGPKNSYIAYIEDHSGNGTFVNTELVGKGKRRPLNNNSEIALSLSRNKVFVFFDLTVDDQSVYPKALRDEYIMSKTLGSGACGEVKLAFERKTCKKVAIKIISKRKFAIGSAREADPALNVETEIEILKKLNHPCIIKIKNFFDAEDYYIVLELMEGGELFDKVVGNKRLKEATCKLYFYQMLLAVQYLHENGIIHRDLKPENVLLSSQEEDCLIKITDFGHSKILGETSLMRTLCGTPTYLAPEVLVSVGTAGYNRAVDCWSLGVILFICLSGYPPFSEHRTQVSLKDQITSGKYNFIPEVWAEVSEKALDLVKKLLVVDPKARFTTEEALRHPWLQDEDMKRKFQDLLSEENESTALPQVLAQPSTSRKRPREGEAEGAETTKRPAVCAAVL
ROCK 2, sequence (O75116 whole entry, species assumed): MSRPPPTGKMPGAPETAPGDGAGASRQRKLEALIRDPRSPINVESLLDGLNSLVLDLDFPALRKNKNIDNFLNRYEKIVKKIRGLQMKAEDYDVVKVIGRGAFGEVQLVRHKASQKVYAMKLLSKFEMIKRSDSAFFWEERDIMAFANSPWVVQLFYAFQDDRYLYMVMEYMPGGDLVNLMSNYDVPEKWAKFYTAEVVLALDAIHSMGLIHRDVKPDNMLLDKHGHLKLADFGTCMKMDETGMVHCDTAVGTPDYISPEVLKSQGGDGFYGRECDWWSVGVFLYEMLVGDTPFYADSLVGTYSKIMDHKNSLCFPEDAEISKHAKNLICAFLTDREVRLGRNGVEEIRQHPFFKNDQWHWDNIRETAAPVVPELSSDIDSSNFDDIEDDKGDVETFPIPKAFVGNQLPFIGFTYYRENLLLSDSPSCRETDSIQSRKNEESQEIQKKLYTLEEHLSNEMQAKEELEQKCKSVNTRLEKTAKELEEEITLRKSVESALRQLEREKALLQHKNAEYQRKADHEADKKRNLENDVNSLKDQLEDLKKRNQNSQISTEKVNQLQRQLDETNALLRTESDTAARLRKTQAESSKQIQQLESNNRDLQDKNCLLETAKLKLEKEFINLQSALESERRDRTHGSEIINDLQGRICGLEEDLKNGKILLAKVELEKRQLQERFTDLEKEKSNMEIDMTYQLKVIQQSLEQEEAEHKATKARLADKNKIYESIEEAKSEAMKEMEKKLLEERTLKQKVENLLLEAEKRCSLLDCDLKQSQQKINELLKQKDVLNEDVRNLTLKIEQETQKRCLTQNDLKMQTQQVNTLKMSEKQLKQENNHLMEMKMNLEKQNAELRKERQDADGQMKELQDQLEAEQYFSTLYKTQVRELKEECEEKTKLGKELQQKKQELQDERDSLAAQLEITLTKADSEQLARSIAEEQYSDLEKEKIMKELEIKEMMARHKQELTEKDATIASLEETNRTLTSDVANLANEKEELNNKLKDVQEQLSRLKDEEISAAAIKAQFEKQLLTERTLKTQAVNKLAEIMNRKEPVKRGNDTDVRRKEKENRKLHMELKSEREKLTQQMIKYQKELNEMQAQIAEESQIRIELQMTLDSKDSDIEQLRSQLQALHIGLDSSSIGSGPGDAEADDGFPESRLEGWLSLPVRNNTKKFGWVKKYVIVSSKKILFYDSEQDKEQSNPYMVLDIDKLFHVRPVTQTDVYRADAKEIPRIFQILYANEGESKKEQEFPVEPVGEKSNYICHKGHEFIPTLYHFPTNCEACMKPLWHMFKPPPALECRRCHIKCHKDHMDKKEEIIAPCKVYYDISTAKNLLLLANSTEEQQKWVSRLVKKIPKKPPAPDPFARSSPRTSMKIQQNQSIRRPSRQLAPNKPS
MKK1, sequence (Q02750 whole entry, species assumed): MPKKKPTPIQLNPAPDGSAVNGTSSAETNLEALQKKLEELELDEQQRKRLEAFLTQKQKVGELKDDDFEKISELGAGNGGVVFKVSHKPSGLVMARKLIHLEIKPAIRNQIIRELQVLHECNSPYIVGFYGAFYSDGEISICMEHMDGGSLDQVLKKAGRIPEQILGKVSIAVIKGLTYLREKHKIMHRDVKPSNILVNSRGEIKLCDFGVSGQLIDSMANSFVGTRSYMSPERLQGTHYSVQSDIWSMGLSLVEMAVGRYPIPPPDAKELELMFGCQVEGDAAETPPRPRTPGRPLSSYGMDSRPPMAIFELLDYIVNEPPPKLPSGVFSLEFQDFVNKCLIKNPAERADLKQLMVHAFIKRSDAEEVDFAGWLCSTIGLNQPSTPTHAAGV
ERK1, sequence (P27361 whole entry, species assumed): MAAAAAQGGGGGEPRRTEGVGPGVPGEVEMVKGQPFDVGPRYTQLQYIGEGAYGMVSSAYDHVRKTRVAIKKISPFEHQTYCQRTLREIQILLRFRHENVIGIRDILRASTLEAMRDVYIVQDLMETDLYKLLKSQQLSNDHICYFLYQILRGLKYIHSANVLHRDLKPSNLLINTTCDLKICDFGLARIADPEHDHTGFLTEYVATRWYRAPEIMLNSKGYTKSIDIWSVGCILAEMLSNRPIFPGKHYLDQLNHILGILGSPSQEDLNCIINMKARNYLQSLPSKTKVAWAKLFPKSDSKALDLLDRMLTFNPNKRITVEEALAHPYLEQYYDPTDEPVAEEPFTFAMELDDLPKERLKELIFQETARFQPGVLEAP

Compound | remaining activity at 10 µM [1, 6] | remaining activity at 10 µM [2, 7] | remaining activity at 10 µM [3, 8] | remaining activity at 10 µM [4, 9] | remaining activity at 10 µM [5, 10] | further results
CC(C)c1cnn2c(NCc3ccccc3)cc(NCCCCCCCN)nc12 [BS-181] |  |  |  |  |  | remaining activity at 10 µM ([1]; ROCK 2, 10 μM, read-out: Mean Remaining Enzyme Activity (%)): 76%; remaining activity at 10 µM ([2]; IKKβ, 10 μM, read-out: Mean Remaining Enzyme Activity (%)): 96%; remaining activity at 10 µM ([3]; MKK1, 10 μM, read-out: Mean Remaining Enzyme Activity (%)): 96%; remaining activity at 10 µM ([4]; ERK1, 10 μM, read-out: Mean Remaining Enzyme Activity (%)): 108%; remaining activity at 10 µM ([5]; CHK2, 10 μM, read-out: Mean Remaining Enzyme Activity (%)): 36%
C=C[C@H](CO)Nc1cc(NCc2ccccc2)n2ncc(C(C)C)c2n1 [ICEC0065] | 95% | 81% | 107% | 84% | 81% | 
CC[C@H](CO)Nc1cc(NCc2ccccc2)n2ncc(C(C)C)c2n1 [ICEC0067] | 85% | 84% | 44% | 69% | 70% | 
CC(C)c1cnn2c(NCc3ccccc3)cc(N[C@@H](CO)[C@H](O)CO)nc12 [ICEC0318, (3S)-3-(7-(Benzylamino)-3-isopropylpyrazolo[1,5-a]pyrimidin-5-ylamino)butane-1,2,4-triol] | 102% | 80% | 65% | 42% | 61% | 
CC(C)c1cnn2c(NCc3ccccc3F)cc(NCCCCCN)nc12 [ICEC-0232] |  |  |  |  |  | mean activity remaining (as a percentage of the original activity), ROCK 2 ([1]; 10 micromolar compound): 86%; mean activity remaining (as a percentage of the original activity), IKKb ([2]; 10 micromolar compound): 84%; mean activity remaining (as a percentage of the original activity), MKK1 ([3]; 10 micromolar compound): 83%; mean activity remaining (as a percentage of the original activity), ERK1 ([4]; 10 micromolar compound): 90%; mean activity remaining (as a percentage of the original activity), CHK 2 ([5]; 10 micromolar compound): 15%
